# Source: patent US9399028B2, “Treatment of drug resistant cancer” (ROCKEFELLER UNIVERSITY (THE), priority 2012, dated 2016)
# System: B16F10 parental and DTIC-resistant cells
# Assay: In vitro cell growth in response to dacarbazine
# Format: cell-based, mouse
# Details: high-dose DTIC treatment
# Description: FIG. 31A-I. Activation of LXRβ Suppresses the In Vivo Growth of Melanoma Lines Resistant to Dacarbazine and Vemurafenib. (FIG. 31A) In vitro cell growth by 2.5×10^4 B16F10 parental cells and in vitro-derived B16F10 DTIC-resistant cells in response to varying doses of dacarbazine (DTIC) added to the cell media for 4 days. n=3. (FIG. 31B-FIG. 31D) Tumor growth by 5×10^4 DTIC-sensitive B16F10 parental cells (FIG. 31B) or 5×10^4 DTIC-resistant B16F10 cells (FIG. 31C) subcutaneously injected into C57BL/6-WT mice. Following tumor growth to 5-10 mm3 in volume, mice were treated with dacarbazine (50 mg/kg, i.p., daily) or a control vehicle and randomly assigned to regular chow or a chow supplemented with GW3965 (100 mg/kg). Final day tumor volume measurements are shown in (FIG. 31D). n=8-16 (FIG. 31B), 7-8 (FIG. 31C). (FIG. 31E-FIG. 31F) Tumor growth by DTIC-sensitive MeWo parental cells and in vivo-derived DTIC-resistant MeWo human melanoma cells in response to DTIC or GW3965 treatments. 5×10^5 cells were subcutaneously injected into NOD Scid gamma mice. After formation of tumors measuring 5-10 mm3 in volume, mice were blindedly assigned to a control treatment, a DTIC treatment (50 mg/kg, i.p., administered daily in 5-day cycles with 2-day off-treatment intervals), or a GW3965-supplemented diet treatment (100 mg/kg). Final day tumor measurements are show in (FIG. 31F). n=6-8. […]
smiles,measurement,value
CN(C)/N=N/c1[nH]cnc1C(N)=O [dacarbazine],increase in viability of DTIC-resistant cells compared to parental B16F10,7 fold
